Measurements: the supplement of paper PMC10307832

Key:
Assay in all cases: relative viability (nuclei count vs DMSO), 5 days (fraction); higher = more cells survive
[1] = compound: O=C(O)c1ccc2c(c1)nc(Nc1cccc(Cl)c1)c1ccncc12 [Silmitasertib] + Cc1nc(NC(=O)N2CCC[C@H]2C(N)=O)sc1-c1ccnc(C(C)(C)C(F)(F)F)c1 [Alpelisib] (partner 2 µM)
Outline: (§1)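 Lung cancer cell lines were seeded in 1536-well plates and dosed by pin tool the next day, with either a single drug or a fixed anchor-drug dose combined with five library-drug doses (not always all listed) spaced in √10 steps. Five days later, one step fixed the cells and stained their nuclei (final 0.05% Triton X-100, 1% formaldehyde, 1 ug/ml Hoechst), and nuclei were counted on 4× images. Relative viability is the nuclei count in treated wells divided by the count in vehicle wells, and each value is the median of duplicate plates.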

Silmitasertib + AZD7762 = compound: O=C(O)c1ccc2c(c1)nc(Nc1cccc(Cl)c1)c1ccncc12 [Silmitasertib] + NC(=O)Nc1cc(-c2cccc(F)c2)sc1C(=O)N[C@H]1CCCNC1 [AZD7762] (partner 0.2 µM)
Outline: as §1

[2] = compound: O=C(O)c1ccc2c(c1)nc(Nc1cccc(Cl)c1)c1ccncc12 [Silmitasertib] + Cc1nc(Nc2ncc(C(=O)Nc3c(C)cccc3Cl)s2)cc(N2CCN(CCO)CC2)n1 [Dasatinib] (partner 0.075 µM)
Outline: as §1

[3] = compound: O=C(O)c1ccc2c(c1)nc(Nc1cccc(Cl)c1)c1ccncc12 [Silmitasertib] + N=C(N)NC(=N)NCCc1ccccc1 [Phenformin] (partner 250 µM)
Outline: as §1

[4] = compound: O=C(O)c1ccc2c(c1)nc(Nc1cccc(Cl)c1)c1ccncc12 [Silmitasertib] + CS(=O)(=O)CCNCc1ccc(-c2ccc3ncnc(Nc4ccc(OCc5cccc(F)c5)c(Cl)c4)c3c2)o1 [Lapatinib] (partner 2 µM)
Outline: as §1

Cell Line: EMC-BAC-2
- relative viability ([1]; first compound 0.04 µM): 0.743
- relative viability ([1]; first compound 0.4 µM): 0.627
- relative viability ([1]; first compound 1.265 µM): 0.558
- relative viability ([1]; first compound 4 µM): 0.547
- relative viability (Silmitasertib + AZD7762; first compound 0.04 µM): 1.22
- relative viability (Silmitasertib + AZD7762; first compound 0.4 µM): 1.04
- relative viability (Silmitasertib + AZD7762; first compound 1.265 µM): 1.08
- relative viability (Silmitasertib + AZD7762; first compound 4 µM): 0.662
- relative viability ([2]; first compound 0.04 µM): 0.34
- relative viability ([2]; first compound 0.4 µM): 0.301
- relative viability ([2]; first compound 1.265 µM): 0.283
- relative viability ([2]; first compound 4 µM): 0.287
- relative viability ([3]; first compound 0.04 µM): 0.578
- relative viability ([3]; first compound 0.4 µM): 0.493
- relative viability ([3]; first compound 1.265 µM): 0.381
- relative viability ([3]; first compound 4 µM): 0.301
- relative viability ([4]; first compound 0.04 µM): 0.963
- relative viability ([4]; first compound 0.4 µM): 0.884
- relative viability ([4]; first compound 1.265 µM): 0.66
- relative viability ([4]; first compound 4 µM): 0.586

Cell Line: EPLC-272H
- relative viability ([1]; first compound 0.04 µM): 1.04
- relative viability ([1]; first compound 1.265 µM): 0.632
- relative viability ([1]; first compound 4 µM): 0.763
- relative viability (Silmitasertib + AZD7762; first compound 0.04 µM): 0.232
- relative viability (Silmitasertib + AZD7762; first compound 1.265 µM): 0.275
- relative viability (Silmitasertib + AZD7762; first compound 4 µM): 0.217
- relative viability ([2]; first compound 0.04 µM): 0.372
- relative viability ([2]; first compound 1.265 µM): 0.255
- relative viability ([2]; first compound 4 µM): 0.224
- relative viability ([3]; first compound 0.04 µM): 0.399
- relative viability ([3]; first compound 1.265 µM): 0.23
- relative viability ([3]; first compound 4 µM): 0.088
- relative viability ([4]; first compound 0.04 µM): 1.09
- relative viability ([4]; first compound 1.265 µM): 0.666
- relative viability ([4]; first compound 4 µM): 0.122

Cell Line: H3255
- relative viability ([1]; first compound 0.04 µM): 0.811
- relative viability ([1]; first compound 0.4 µM): 0.786
- relative viability ([1]; first compound 1.265 µM): 0.657
- relative viability ([1]; first compound 4 µM): 0.549
- relative viability (Silmitasertib + AZD7762; first compound 0.04 µM): 1.09
- relative viability (Silmitasertib + AZD7762; first compound 0.4 µM): 0.808
- relative viability (Silmitasertib + AZD7762; first compound 1.265 µM): 0.807
- relative viability (Silmitasertib + AZD7762; first compound 4 µM): 0.77
- relative viability ([2]; first compound 0.04 µM): 0.364
- relative viability ([2]; first compound 0.4 µM): 0.34
- relative viability ([2]; first compound 1.265 µM): 0.298
- relative viability ([2]; first compound 4 µM): 0.349
- relative viability ([3]; first compound 0.04 µM): 0.355
- relative viability ([3]; first compound 0.4 µM): 0.353
- relative viability ([3]; first compound 1.265 µM): 0.31
- relative viability ([3]; first compound 4 µM): 0.359
- relative viability ([4]; first compound 0.04 µM): 0.239
- relative viability ([4]; first compound 0.4 µM): 0.227
- relative viability ([4]; first compound 1.265 µM): 0.204
- relative viability ([4]; first compound 4 µM): 0.169

Cell Line: HARA
- relative viability ([1]; first compound 0.04 µM): 1.08
- relative viability ([1]; first compound 0.4 µM): 0.64
- relative viability ([1]; first compound 1.265 µM): 0.565
- relative viability ([1]; first compound 4 µM): 0.545
- relative viability (Silmitasertib + AZD7762; first compound 0.04 µM): 0.411
- relative viability (Silmitasertib + AZD7762; first compound 0.4 µM): 0.289
- relative viability (Silmitasertib + AZD7762; first compound 1.265 µM): 0.589
- relative viability (Silmitasertib + AZD7762; first compound 4 µM): 0.443
- relative viability ([2]; first compound 0.04 µM): 0.254
- relative viability ([2]; first compound 0.4 µM): 0.246
- relative viability ([2]; first compound 1.265 µM): 0.253
- relative viability ([2]; first compound 4 µM): 0.272
- relative viability ([3]; first compound 0.04 µM): 0.439
- relative viability ([3]; first compound 0.4 µM): 0.253
- relative viability ([3]; first compound 1.265 µM): 0.448
- relative viability ([3]; first compound 4 µM): 0.162
- relative viability ([4]; first compound 0.04 µM): 0.901
- relative viability ([4]; first compound 0.4 µM): 0.696
- relative viability ([4]; first compound 1.265 µM): 0.608
- relative viability ([4]; first compound 4 µM): 0.592

Cell Line: HCC-15
- relative viability ([1]; first compound 0.04 µM): 0.972
- relative viability ([1]; first compound 0.4 µM): 0.683
- relative viability ([1]; first compound 1.265 µM): 0.618
- relative viability ([1]; first compound 4 µM): 0.45
- relative viability (Silmitasertib + AZD7762; first compound 0.04 µM): 1.19
- relative viability (Silmitasertib + AZD7762; first compound 0.4 µM): 0.884
- relative viability (Silmitasertib + AZD7762; first compound 1.265 µM): 1.15
- relative viability (Silmitasertib + AZD7762; first compound 4 µM): 0.875
- relative viability ([2]; first compound 0.04 µM): 0.669
- relative viability ([2]; first compound 0.4 µM): 0.53
- relative viability ([2]; first compound 1.265 µM): 0.396
- relative viability ([2]; first compound 4 µM): 0.32
- relative viability ([3]; first compound 0.04 µM): 0.541
- relative viability ([3]; first compound 0.4 µM): 0.39
- relative viability ([3]; first compound 1.265 µM): 0.398
- relative viability ([3]; first compound 4 µM): 0.25
- relative viability ([4]; first compound 0.04 µM): 0.91
- relative viability ([4]; first compound 0.4 µM): 0.52
- relative viability ([4]; first compound 1.265 µM): 0.676
- relative viability ([4]; first compound 4 µM): 0.321

Cell Line: HCC-44
- relative viability ([1]; first compound 0.04 µM): 0.767
- relative viability ([1]; first compound 0.4 µM): 0.761
- relative viability ([1]; first compound 1.265 µM): 0.769
- relative viability ([1]; first compound 4 µM): 0.741
- relative viability (Silmitasertib + AZD7762; first compound 0.04 µM): 0.978
- relative viability (Silmitasertib + AZD7762; first compound 0.4 µM): 1.04
- relative viability (Silmitasertib + AZD7762; first compound 1.265 µM): 1.08
- relative viability (Silmitasertib + AZD7762; first compound 4 µM): 0.978
- relative viability ([3]; first compound 0.04 µM): 0.267
- relative viability ([3]; first compound 0.4 µM): 0.234
- relative viability ([3]; first compound 1.265 µM): 0.117
- relative viability ([3]; first compound 4 µM): 0.12
- relative viability ([4]; first compound 0.04 µM): 0.968
- relative viability ([4]; first compound 0.4 µM): 0.916
- relative viability ([4]; first compound 1.265 µM): 1.02
- relative viability ([4]; first compound 4 µM): 0.699

Cell Line: HCC-78
- relative viability ([1]; first compound 0.04 µM): 0.417
- relative viability ([1]; first compound 0.4 µM): 0.243
- relative viability ([1]; first compound 1.265 µM): 0.268
- relative viability ([1]; first compound 4 µM): 0.319
- relative viability (Silmitasertib + AZD7762; first compound 0.04 µM): 0.783
- relative viability (Silmitasertib + AZD7762; first compound 0.4 µM): 0.469
- relative viability (Silmitasertib + AZD7762; first compound 1.265 µM): 0.405
- relative viability (Silmitasertib + AZD7762; first compound 4 µM): 0.475
- relative viability ([2]; first compound 0.04 µM): 0.51
- relative viability ([2]; first compound 0.4 µM): 0.286
- relative viability ([2]; first compound 1.265 µM): 0.309
- relative viability ([2]; first compound 4 µM): 0.323
- relative viability ([3]; first compound 0.04 µM): 0.678
- relative viability ([3]; first compound 0.4 µM): 0.517
- relative viability ([3]; first compound 1.265 µM): 0.707
- relative viability ([3]; first compound 4 µM): 0.594
- relative viability ([4]; first compound 0.04 µM): 1.15
- relative viability ([4]; first compound 0.4 µM): 0.511
- relative viability ([4]; first compound 1.265 µM): 0.187
- relative viability ([4]; first compound 4 µM): 0.322

Cell Line: HCC-366
- relative viability ([1]; first compound 0.04 µM): 0.453
- relative viability ([1]; first compound 1.265 µM): 0.317
- relative viability ([1]; first compound 4 µM): 0.383
- relative viability (Silmitasertib + AZD7762; first compound 0.04 µM): 0.254
- relative viability (Silmitasertib + AZD7762; first compound 0.4 µM): 0.188
- relative viability (Silmitasertib + AZD7762; first compound 1.265 µM): 0.371
- relative viability (Silmitasertib + AZD7762; first compound 4 µM): 0.147
- relative viability ([2]; first compound 0.04 µM): 0.57
- relative viability ([2]; first compound 0.4 µM): 0.48
- relative viability ([2]; first compound 1.265 µM): 0.525
- relative viability ([2]; first compound 4 µM): 0.379
- relative viability ([3]; first compound 0.04 µM): 0.698
- relative viability ([3]; first compound 0.4 µM): 0.42
- relative viability ([3]; first compound 1.265 µM): 0.6
- relative viability ([3]; first compound 4 µM): 0.24
- relative viability ([4]; first compound 0.04 µM): 1.2
- relative viability ([4]; first compound 1.265 µM): 0.784
- relative viability ([4]; first compound 4 µM): 0.12

Cell Line: HCC-827
- relative viability ([1]; first compound 0.04 µM): 1.03
- relative viability ([1]; first compound 1.265 µM): 1.07
- relative viability ([1]; first compound 4 µM): 1.03
- relative viability (Silmitasertib + AZD7762; first compound 0.04 µM): 0.234
- relative viability (Silmitasertib + AZD7762; first compound 1.265 µM): 0.214
- relative viability (Silmitasertib + AZD7762; first compound 4 µM): 0.205
- relative viability ([2]; first compound 0.04 µM): 0.342
- relative viability ([2]; first compound 1.265 µM): 0.259
- relative viability ([2]; first compound 4 µM): 0.274
- relative viability ([3]; first compound 0.04 µM): 0.436
- relative viability ([3]; first compound 1.265 µM): 0.413
- relative viability ([3]; first compound 4 µM): 0.376
- relative viability ([4]; first compound 0.04 µM): 0.197
- relative viability ([4]; first compound 1.265 µM): 0.193
- relative viability ([4]; first compound 4 µM): 0.135
